We go through three compounds from US20080300138A1, “Dioxazinyl-Substituted Thienylsulphonylaminocarbonyl Compounds” (priority 2004, published 2008).

One assay relates to weeds. The assay can be described thus: Post-emergence test (summary in words). Type of assay: in vivo, mono- and dicotyledonous weed plants. The following applies: greenhouse, result in words. The protocol: (§1) Seeds of mono- and dicotyledonous weed and crop plants are placed in sandy loam soil in wood fiber pots, covered with soil and cultivated in a greenhouse under good growth conditions. 2 to 3 weeks after sowing, the trial plants are treated at the one-leaf stage. The test compounds, formulated as wettable powders (WP), are sprayed at various dosages with a water application rate of 800 I/ha (converted) and with addition of 0.2% of welting agent onto the green parts of the plants. After the trial plants have stood in the greenhouse for about 3 weeks under optimum growth conditions, the effect of the products is scored visually in comparison to untreated controls (herbicidal effect in percent (%): 100% effect=plants have died, 0% effect=like control plants).

Another assay has as its system Setaria. Nature of the assay: Post-emergence test/greenhouse. The following applies: 80 g of ai/ha, WP sprayed at one-leaf stage, scored visually after about 3 weeks, 100% = plants have died, 0% = like control plants. Type of assay: in vivo. The protocol: as §1
The next assay has as its system Cyperus. The assay can be described thus: Post-emergence test/greenhouse. Type of assay: in vivo. The following applies: 80 g of ai/ha, WP sprayed at one-leaf stage, scored visually after about 3 weeks, 100% = plants have died, 0% = like control plants. The protocol: as §1
In the next assay the test system is Stellaria. The assay can be described thus: Post-emergence test/greenhouse. Type of assay: in vivo. The settings on record: 80 g of ai/ha, WP sprayed at one-leaf stage, scored visually after about 3 weeks, 100% = plants have died, 0% = like control plants. The protocol: as §1
The next assay has as its system Amaranthus. Nature of the assay: Post-emergence test/greenhouse. Type of assay: in vivo. The following applies: 80 g of ai/ha, WP sprayed at one-leaf stage, scored visually after about 3 weeks, 100% = plants have died, 0% = like control plants. The protocol: as §1
In another assay the test system is Echinochloa. Nature of the assay: Post-emergence test/greenhouse. Type of assay: in vivo. The following applies: 80 g of ai/ha, WP sprayed at one-leaf stage, scored visually after about 3 weeks, 100% = plants have died, 0% = like control plants. The protocol: as §1
The test system of another assay is Lolium. The assay can be described thus: Post-emergence test/greenhouse. Type of assay: in vivo. The following applies: 80 g of ai/ha, WP sprayed at one-leaf stage, scored visually after about 3 weeks, 100% = plants have died, 0% = like control plants. The protocol:
as §1

For a further assay, the system named is Sinapis. Nature of the assay: Post-emergence test/greenhouse. Type of assay: in vivo. The following applies: 80 g of ai/ha, WP sprayed at one-leaf stage, scored visually after about 3 weeks, 100% = plants have died, 0% = like control plants. The protocol: as §1

On to `COc1nc(C)nc(NC(=O)NS(=O)(=O)c2c(C3=NOCCO3)csc2C)n1` [Example 1, N-(4-methoxy-6-methyl-1,3,5-triazin-2-yl)-N′-(4-(5,6-dihydro-[1,4,2]-dioxazin-3-yl)-2-methylthien-3-ylsulfonyl)urea], for which the effectiveness against weeds entry in the assay on weeds is on record as “highly effective”. Besides, in the assay with Setaria, the “herbicidal effect in percent, Setaria” value came out at 90%. For the same compound, the “herbicidal effect in percent, Cyperus” value in the assay with Cyperus amounted to 100%. The “herbicidal effect in percent, Stellaria” value in the assay with Stellaria amounted to 90%. In addition, the “herbicidal effect in percent, Amaranthus” value in the assay with Amaranthus turned out to be 90%. In the assay with Echinochloa, the “herbicidal effect in percent, Echinochloa” value stood at 90%. Moreover, the “herbicidal effect in percent, Lolium” value in the assay on Lolium was 90%. Besides, in the assay with Sinapis, the “herbicidal effect in percent, Sinapis” value is listed as 90%.

Consider `CCOc1nn(C)c(=O)n1C` [Example 7], for which the effectiveness against weeds entry in the assay on weeds is “highly effective”. Also, the “herbicidal effect in percent, Setaria” value in the assay with Setaria came out at 90%. Further, the “herbicidal effect in percent, Cyperus” value with Cyperus is reported as 90%. Also, in the assay with Stellaria, the “herbicidal effect in percent, Stellaria” value is given as 90%. Moreover, the “herbicidal effect in percent, Amaranthus” value in the assay on Amaranthus is recorded as 90%. Also, the “herbicidal effect in percent, Echinochloa” value with Echinochloa is on record as 90%. In addition, in the assay with Lolium, the “herbicidal effect in percent, Lolium” value amounted to 90%. In addition, the “herbicidal effect in percent, Sinapis” value in the assay with Sinapis is 80%.

For the compound `COc1nn(C)c(=O)n1C` [Example 6], the effectiveness against weeds entry in the assay on weeds was “highly effective”. Moreover, the “herbicidal effect in percent, Setaria” value with Setaria came out at 80%. In addition, in the assay with Cyperus, the “herbicidal effect in percent, Cyperus” value amounted to 80%. The “herbicidal effect in percent, Stellaria” value with Stellaria amounted to 90%. Moreover, in the assay on Amaranthus, the “herbicidal effect in percent, Amaranthus” value amounted to 90%. Besides, the “herbicidal effect in percent, Echinochloa” value in the assay on Echinochloa came to 80%. The “herbicidal effect in percent, Lolium” value in the assay on Lolium came to 90%. In addition, the “herbicidal effect in percent, Sinapis” value in the assay on Sinapis is given as 80%.
